# Activity calls are given as the source filed them. No cut-off for these calls is given here.
# Tests used:
# Acetylcholinesterase [1] = biological target: T1, Acetylcholinesterase (Torpedo californica, UniProt P04058); experiment: Inhibition of Torpedo californica […] AChE using acetylthiocholine/DTNB as substrate preincubated for 10 mins followed by substrate addition measured every 30 secs for 30 mins by Ellmans method; parameters: species or system Tetronarce californica
# Acetylcholinesterase [2] = biological target: T1, Acetylcholinesterase; experiment: Inhibition of Torpedo californica […] AChE using acetylthiocholine/DTNB as substrate assessed as ROS-induced enzyme inactivation preincubated for 10 mins followed by substrate addition measured every 30 secs for 20 mins in presence of horseradish peroxidase and H2O2; parameters: species or system Tetronarce californica
# [3] = biological target: Acetylcholinesterase (Torpedo californica) (UniProt P04058); experiment: Non-competitive inhibition of Torpedo californica […] AChE using acetylthiocholine as substrate at 0.2 to 5 uM measured for 2 mins by Lineweaver-Burk plot analysis; settings: Tetronarce californica
# Sequence of Acetylcholinesterase (Torpedo californica) (P04058 22-564 limits assumed): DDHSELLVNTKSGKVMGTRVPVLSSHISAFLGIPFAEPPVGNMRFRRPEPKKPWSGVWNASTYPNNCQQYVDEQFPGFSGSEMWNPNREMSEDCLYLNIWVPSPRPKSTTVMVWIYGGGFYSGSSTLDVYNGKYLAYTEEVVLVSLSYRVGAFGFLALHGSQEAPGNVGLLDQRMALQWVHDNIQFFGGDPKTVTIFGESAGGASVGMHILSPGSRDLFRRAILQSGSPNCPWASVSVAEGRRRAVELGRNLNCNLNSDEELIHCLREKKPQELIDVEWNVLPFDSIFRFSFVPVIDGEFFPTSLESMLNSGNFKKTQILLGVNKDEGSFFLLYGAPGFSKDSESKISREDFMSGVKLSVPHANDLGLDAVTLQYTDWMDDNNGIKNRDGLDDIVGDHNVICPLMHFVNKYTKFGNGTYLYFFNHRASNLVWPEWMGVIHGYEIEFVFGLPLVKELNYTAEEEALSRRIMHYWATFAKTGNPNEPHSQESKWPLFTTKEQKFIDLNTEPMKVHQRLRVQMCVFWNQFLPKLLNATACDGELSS
# T1 sequence (P04058 whole entry): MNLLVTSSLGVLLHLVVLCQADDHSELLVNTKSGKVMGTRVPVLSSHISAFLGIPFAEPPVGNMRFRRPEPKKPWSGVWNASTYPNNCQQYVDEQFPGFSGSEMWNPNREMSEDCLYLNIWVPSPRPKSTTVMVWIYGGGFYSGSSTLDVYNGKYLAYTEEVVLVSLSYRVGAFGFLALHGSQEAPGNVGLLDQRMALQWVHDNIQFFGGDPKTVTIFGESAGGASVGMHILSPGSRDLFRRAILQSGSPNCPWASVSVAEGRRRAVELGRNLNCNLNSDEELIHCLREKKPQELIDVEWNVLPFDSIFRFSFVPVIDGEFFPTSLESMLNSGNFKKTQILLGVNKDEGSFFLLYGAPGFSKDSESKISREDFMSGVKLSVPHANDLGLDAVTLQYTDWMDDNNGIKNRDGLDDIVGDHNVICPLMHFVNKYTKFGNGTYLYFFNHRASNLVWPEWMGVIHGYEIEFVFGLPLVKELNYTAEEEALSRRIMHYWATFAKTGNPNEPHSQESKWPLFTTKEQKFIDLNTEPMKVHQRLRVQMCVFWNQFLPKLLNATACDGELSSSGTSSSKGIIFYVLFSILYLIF
SMILES,IC50 (Acetylcholinesterase [1]),IC50 (Acetylcholinesterase [2]),inhibition [3]
Cc1cccc(Nc2ccccc2C(=O)NCCCCCC(=O)NCCCCCCCNc2c3c(nc4cc(Cl)ccc24)CCCC3)c1C,0.0111 µM,13.4 nM,–
Cc1cccc(Nc2ccccc2C(=O)NCCCC(=O)NCCCCCCNc2c3c(nc4ccccc24)CCCC3)c1C,0.195 µM,29.9 nM,–
CN(C)C(=O)Oc1cccc([N+](C)(C)C)c1 [NEOSTIGMINE],0.0046 µM,–,–
Cc1cccc(Nc2ccccc2C(=O)NCCCC(=O)NCCCNc2c3c(nc4ccccc24)CCCC3)c1C,3.73 µM,23 nM,–
Cc1cccc(Nc2ccccc2C(=O)NCC(=O)NCCCCCCCNc2c3c(nc4ccccc24)CCCC3)c1C,0.00555 µM,15.3 nM,–
Cc1cccc(Nc2ccccc2C(=O)NCC(=O)NCCCNc2c3c(nc4ccccc24)CCCC3)c1C,0.0873 µM,47.5 nM,–
Cc1cccc(Nc2ccccc2C(=O)NCCCCCC(=O)NCCCNc2c3c(nc4cc(Cl)ccc24)CCCC3)c1C,0.00165 µM,7.85 nM,–
Cc1cccc(Nc2ccccc2C(=O)NCCCCCC(=O)NCCCCCCCNc2c3c(nc4ccccc24)CCCC3)c1C,0.0036 µM,3.66 nM,–
Cc1cccc(Nc2ccccc2C(=O)NCCCC(=O)NCCCCNc2c3c(nc4cc(Cl)ccc24)CCCC3)c1C,0.0136 µM,12.4 nM,–
Cc1cccc(Nc2ccccc2C(=O)NCCCCCCCCNc2c3c(nc4ccccc24)CCCC3)c1C,0.0755 µM,0.045 nM,–
Cc1cccc(Nc2ccccc2C(=O)NCC(=O)NCCCCCCCNc2c3c(nc4cc(Cl)ccc24)CCCC3)c1C,0.000418 µM,0.009 nM,–
Cc1cccc(Nc2ccccc2C(=O)NCCCCCC(=O)NCCCCCCCCNc2c3c(nc4cc(Cl)ccc24)CCCC3)c1C,0.0801 µM,8.67 nM,–
Cc1cccc(Nc2ccccc2C(=O)NCC(=O)NCCCCNc2c3c(nc4ccccc24)CCCC3)c1C,0.262 µM,53.6 nM,–
Cc1cccc(Nc2ccccc2C(=O)NCCC(=O)NCCCCNc2c3c(nc4cc(Cl)ccc24)CCCC3)c1C,2.47 µM,33 nM,–
Cc1cccc(Nc2ccccc2C(=O)NCCCCCCCCCCCCNc2c3c(nc4ccccc24)CCCC3)c1C,0.0509 µM,6.94 nM,–
Cc1cccc(Nc2ccccc2C(=O)NCCCCCCCCCNc2c3c(nc4ccccc24)CCCC3)c1C,0.00154 µM,15.1 nM,–
Cc1cccc(Nc2ccccc2C(=O)O)c1C [MEFENAMIC ACID],> 1250 µM,6120 nM,–
Cc1cccc(Nc2ccccc2C(=O)NCCCC(=O)NCCCCCCCNc2c3c(nc4cc(Cl)ccc24)CCCC3)c1C,0.00791 µM,6.55 nM,–
Cc1cccc(Nc2ccccc2C(=O)NCCCCCCNc2c3c(nc4cc(Cl)ccc24)CCCC3)c1C,7.23 µM,1.02 nM,–

SMILES,IC50 (Acetylcholinesterase [1]),IC50 (Acetylcholinesterase [2]),inhibition [3]
Cc1cccc(Nc2ccccc2C(=O)NCCCC(=O)NCCCCCCCCNc2c3c(nc4ccccc24)CCCC3)c1C,0.0174 µM,14.6 nM,–
Cc1cccc(Nc2ccccc2C(=O)NCC(=O)NCCCCCCNc2c3c(nc4cc(Cl)ccc24)CCCC3)c1C,0.00765 µM,3.46 nM,–
Clc1ccc2c(Cl)c3c(nc2c1)CCCC3,> 50 µM,–,–
Cc1cccc(Nc2ccccc2C(=O)NCCC(=O)NCCCCCCCNc2c3c(nc4cc(Cl)ccc24)CCCC3)c1C,0.00667 µM,10 nM,–
Cc1cccc(Nc2ccccc2C(=O)NCC(=O)NCCCCNc2c3c(nc4cc(Cl)ccc24)CCCC3)c1C,0.156 µM,89.4 nM,–
Cc1cccc(Nc2ccccc2C(=O)NCCCCCC(=O)NCCCCNc2c3c(nc4cc(Cl)ccc24)CCCC3)c1C,0.0374 µM,0.299 nM,–
Cc1cccc(Nc2ccccc2C(=O)NCCCC(=O)NCCCNc2c3c(nc4cc(Cl)ccc24)CCCC3)c1C,0.00713 µM,1.03 nM,–
Cc1cccc(Nc2ccccc2C(=O)NCCC(=O)NCCCCCCNc2c3c(nc4ccccc24)CCCC3)c1C,0.985 µM,40.2 nM,–
CN(C)C(=O)Oc1ccc[n+](C)c1 [PYRIDOSTIGMINE],0.082 µM,–,–
Cc1cccc(Nc2ccccc2C(=O)NCCCCCCCNc2c3c(nc4cc(Cl)ccc24)CCCC3)c1C,1.38 µM,29.8 nM,–
Cc1cccc(Nc2ccccc2C(=O)NCCCCCCNc2c3c(nc4ccccc24)CCCC3)c1C,0.00224 µM,0.129 nM,–
Cc1cccc(Nc2ccccc2C(=O)NCCCCCCCCCCNc2c3c(nc4ccccc24)CCCC3)c1C,0.385 µM,0.908 nM,Active
Cc1cccc(Nc2ccccc2C(=O)NCCCCCCCNc2c3c(nc4ccccc24)CCCC3)c1C,0.00139 µM,25.2 nM,–
Cc1cccc(Nc2ccccc2C(=O)NCCC(=O)NCCCCCCCCNc2c3c(nc4ccccc24)CCCC3)c1C,0.00858 µM,4.07 nM,–
Cc1cccc(Nc2ccccc2C(=O)NCCC(=O)NCCCCCCNc2c3c(nc4cc(Cl)ccc24)CCCC3)c1C,0.00114 µM,2.96 nM,–
Cc1cccc(Nc2ccccc2C(=O)NCC(=O)NCCCCCCNc2c3c(nc4ccccc24)CCCC3)c1C,0.0183 µM,54.8 nM,–
Cc1cccc(Nc2ccccc2C(=O)NCCCCCCCCCCCCNc2c3c(nc4cc(Cl)ccc24)CCCC3)c1C,2.36 µM,16.2 nM,–
Cc1cccc(Nc2ccccc2C(=O)NCC(=O)NCCCCCCCCNc2c3c(nc4cc(Cl)ccc24)CCCC3)c1C,0.0398 µM,18.1 nM,–
Cc1cccc(Nc2ccccc2C(=O)NCCCCCCCCCCNc2c3c(nc4cc(Cl)ccc24)CCCC3)c1C,0.000776 µM,1.85 nM,–

SMILES,IC50 (Acetylcholinesterase [1]),IC50 (Acetylcholinesterase [2]),inhibition [3]
Cc1cccc(Nc2ccccc2C(=O)NCCCCCCCCNc2c3c(nc4cc(Cl)ccc24)CCCC3)c1C,0.000495 µM,1.49 nM,–
Cc1cccc(Nc2ccccc2C(=O)NCCCC(=O)NCCCCCCNc2c3c(nc4cc(Cl)ccc24)CCCC3)c1C,0.0417 µM,15.6 nM,–
Cc1cccc(Nc2ccccc2C(=O)NCC(=O)NCCCNc2c3c(nc4cc(Cl)ccc24)CCCC3)c1C,0.0281 µM,3.1 nM,–
Cc1cccc(Nc2ccccc2C(=O)NCCCCCCCCCNc2c3c(nc4cc(Cl)ccc24)CCCC3)c1C,0.00694 µM,6.72 nM,–
Cc1cccc(Nc2ccccc2C(=O)NCCC(=O)NCCCNc2c3c(nc4cc(Cl)ccc24)CCCC3)c1C,0.0203 µM,21.3 nM,–
Cc1cccc(Nc2ccccc2C(=O)NCCC(=O)NCCCCNc2c3c(nc4ccccc24)CCCC3)c1C,0.426 µM,2.43 nM,–
Cc1cccc(Nc2ccccc2C(=O)NCCCC(=O)NCCCCCCCNc2c3c(nc4ccccc24)CCCC3)c1C,0.00809 µM,44.6 nM,–
Cc1cccc(Nc2ccccc2C(=O)NCCCC(=O)NCCCCNc2c3c(nc4ccccc24)CCCC3)c1C,0.0897 µM,14.6 nM,–
Cc1cccc(Nc2ccccc2C(=O)NCCCCCC(=O)NCCCCCCCCNc2c3c(nc4ccccc24)CCCC3)c1C,0.0187 µM,6.26 nM,–
Cc1cccc(Nc2ccccc2C(=O)NCCC(=O)NCCCNc2c3c(nc4ccccc24)CCCC3)c1C,3.8 µM,7.92 nM,–
Cc1cccc(Nc2ccccc2C(=O)NCCCCCC(=O)NCCCCNc2c3c(nc4ccccc24)CCCC3)c1C,1.86 µM,34 nM,–
Cc1cccc(Nc2ccccc2C(=O)NCCCCCC(=O)NCCCCCCNc2c3c(nc4cc(Cl)ccc24)CCCC3)c1C,0.00294 µM,7.39 nM,–
Cc1cccc(Nc2ccccc2C(=O)NCCC(=O)NCCCCCCCCNc2c3c(nc4cc(Cl)ccc24)CCCC3)c1C,0.0183 µM,4.97 nM,–
Cc1cccc(Nc2ccccc2C(=O)NCC(=O)NCCCCCCCCNc2c3c(nc4ccccc24)CCCC3)c1C,0.0033 µM,17.2 nM,–
Cc1cccc(Nc2ccccc2C(=O)NCCCCCC(=O)NCCCNc2c3c(nc4ccccc24)CCCC3)c1C,0.811 µM,20.2 nM,–
Cc1cccc(Nc2ccccc2C(=O)NCCCC(=O)NCCCCCCCCNc2c3c(nc4cc(Cl)ccc24)CCCC3)c1C,0.017 µM,6.59 nM,–
Cc1cccc(Nc2ccccc2C(=O)NCCC(=O)NCCCCCCCNc2c3c(nc4ccccc24)CCCC3)c1C,0.0139 µM,1.02 nM,–
Cc1cccc(Nc2ccccc2C(=O)NCCCCCC(=O)NCCCCCCNc2c3c(nc4ccccc24)CCCC3)c1C,1.44 µM,34 nM,–
Clc1c2c(nc3ccccc13)CCCC2,> 25 µM,83.9 nM,–
